Here are results for one compound from patent US5086045A, “Antitumor antibiotic” (Bristol-Myers Squibb Company, priority 1990, dated 1992).

Common to all, as to assay: Antibacterial activity (MIC), serial two-fold agar dilution
Type in all cases: cell-based
(In agar dilution the substance is mixed into plates at graded concentrations.)

The test system of assay [1] is S. aureus A9537. The conditions noted are these: Staphylococcus aureus. Here is the method: (§1) Antimicrobial activity of BMY-41339 was determined for a variety of bacteria by the serial two-fold agar dilution method.
The test system of assay [2] is E. faecalis A20688. The conditions noted are these: Enterococcus faecalis. Here is the method:
as §1

Assay [3] has as its system K. pneumoniae A20468. As to conditions: Klebsiella pneumoniae. As for the experimental part:
as §1

In assay [4] the test system is E. faecalis A25707. As to conditions: Enterococcus faecalis. Here is the method:
as §1

The test system of assay [5] is P. vulgaris A21559. The conditions noted are these: Proteus vulgaris. As for the experimental part:
as §1

For assay [6], the system named is E. coli A15119. As to conditions: Escherichia coli. As for the experimental part:
as §1

In assay [7] the test system is S. aureus A24407. The conditions noted are these: Staphylococcus aureus. Here is the method:
as §1

Assay [8] relates to S. aureus A20698. The conditions noted are these: Staphylococcus aureus. As for the experimental part:
as §1

Converted amounts (≈) assume the structure as drawn.

The MIC is the least concentration at which growth counts as inhibited. Higher therefore signals weaker potency. For the compound `C=C(OC)C(=O)Nc1cc(OC)c(OC)cc1C(=O)OC1CC(OC2C(=O)C(NC(=O)OC)=C3C(=CCSSSSC)C2(O)C#CC=CC#CC3OC2OC(C)C(NOC3CC(O)C(SC)C(C)O3)C(O)C2OC2CC(OC)C(NC(C)C)CO2)OC(C)C1O` (centres unmarked) [BMY-41339], the MIC was 1 ng/mL (≈ 0.737 nM) in assay [1]; 2 ng/mL (≈ 1.47 nM) in assay [2]; 1000 ng/mL (≈ 737 nM) in assay [3]; 2 ng/mL (≈ 1.47 nM) in assay [4]; 130 ng/mL (≈ 95.8 nM) in assay [5]; 250 ng/mL (≈ 184 nM) in assay [6]. The minimal inhibitory concentration (MIC) in assay [7] and in assay [8] was 1 ng/mL (≈ 0.737 nM) in each case.
